{"source": "patent US20250297134A1", "about": "“HIGH RATE BULK OXIDE CMP COMPOSITION” (ENTEGRIS, INC., priority 2024, published 2025)", "data": [{"test": "Aqueous solubility of hydroxamic acid compounds", "assay_type": "physicochemical", "conditions": "deionized water, pH 5.5, stirred overnight, filtered, 1H NMR quantification", "protocol": "The aqueous solubility was measured and the partition coefficient was computed for nineteen hydroxamic acid compounds. To measure the aqueous solubility, a supersaturated solution of each hydroxamic acid compound was prepared in deionized water. The pH was adjusted to 5.5 using nitric acid and the supersaturated solution was stirred overnight. Excess solids were removed via filtration and the hydroxamic acid compound in solution was quantified using 1H NMR with a t-BuOH standard. […] It was not possible to achieve super saturation for the 2-furohydroxamic acid compound. […] The partition coefficients were computed using the procedure described in Wildman, Scott A. and Crippen, Gordon M., Prediction of Physicochemical Parameters by Atomic Contributions, J. Chem. Inf. Comput. Sci. 1999, 39, 5, 868-873. Briefly, an atom type classification system was used for an atom-based calculation of the partition coefficient (log P) and the molar refractivity (MR).", "units": {"Aqueous Solubility": "%"}, "values": [{"molecule": "2-Fluoro hydroxamic acid", "Aqueous Solubility": 1.0}, {"molecule": "3-Fluoro hydroxamic acid", "Aqueous Solubility": 1.3}, {"molecule": "4-Fluoro hydroxamic acid", "Aqueous Solubility": 1.0}, {"molecule": "COc1ccccc1C(=O)NO", "note": "[2-Methoxybenzohydroxamic acid]", "Aqueous Solubility": 1.1}, {"molecule": "Cc1ccccc1C(=O)NO", "note": "[2-Methylbenzohydroxamic acid]", "Aqueous Solubility": 3.3}, {"molecule": "O=C(NO)c1ccco1", "note": "[2-furohydroxamic acid]", "Aqueous Solubility": ">17.8"}, {"molecule": "Cc1ccc(CCCC(=O)NO)cc1", "note": "[4-(p-tolyl)butyrohydroxamic acid]", "Aqueous Solubility": 0.2}, {"molecule": "N#Cc1ccc(C(=O)NO)cc1", "note": "[4-Cyano-N-hydroxybenzamide]", "Aqueous Solubility": 0.5}, {"molecule": "COc1ccc(C(=O)NO)cc1", "note": "[4-Methoxybenzohydroxamic acid]", "Aqueous Solubility": 0.4}, {"molecule": "Cc1ccc(C(=O)NO)cc1", "note": "[4-Methylbenzohydroxamic acid]", "Aqueous Solubility": 0.5}, {"molecule": "O=C(CCCc1ccccc1)NO", "note": "[4-Phenylbutyrl hydroxamic acid]", "Aqueous Solubility": 1.6}, {"molecule": "O=C(NO)c1ccccc1", "note": "[Benzohydroxamic acid]", "Aqueous Solubility": 3.6}, {"molecule": "O=C(COCc1ccccc1)NO", "note": "[Benzyloxyacetohydroxamic acid]", "Aqueous Solubility": 1.8}, {"molecule": "O=C(C=Cc1ccccc1)NO", "note": "[Cinnamohydroxamic acid]", "Aqueous Solubility": 0.6}, {"molecule": "CCCCCC(=O)NO", "note": "[Hexanohydroxamic acid]", "Aqueous Solubility": 4.8}, {"molecule": "O=C(Cc1ccccc1)NO", "note": "[N-hydroxy-2-phenyl-acetamide]", "Aqueous Solubility": 1.5}, {"molecule": "CCCCCCCC(=O)NO", "note": "[Octanohydroxamic acid]", "Aqueous Solubility": 0.2}, {"molecule": "O=C(NO)c1ccccn1", "note": "[Picolinichydroxamic acid]", "Aqueous Solubility": 3.0}]}]}
